Each structure is given as a SMILES string.

T1 sequence (P03420 137-574): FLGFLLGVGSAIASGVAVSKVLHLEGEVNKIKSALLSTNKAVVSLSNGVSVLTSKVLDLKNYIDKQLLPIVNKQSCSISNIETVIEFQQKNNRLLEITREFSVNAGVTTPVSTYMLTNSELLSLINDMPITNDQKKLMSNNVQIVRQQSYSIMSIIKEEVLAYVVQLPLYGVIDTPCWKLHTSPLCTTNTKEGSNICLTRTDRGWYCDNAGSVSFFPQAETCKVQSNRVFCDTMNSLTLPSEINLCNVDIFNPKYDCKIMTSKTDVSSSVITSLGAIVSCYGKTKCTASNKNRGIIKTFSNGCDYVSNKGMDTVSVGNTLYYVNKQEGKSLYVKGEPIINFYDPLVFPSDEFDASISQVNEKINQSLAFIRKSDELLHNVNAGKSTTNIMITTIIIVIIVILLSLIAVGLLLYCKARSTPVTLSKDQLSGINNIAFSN
T1 sequence (P03420 26-109): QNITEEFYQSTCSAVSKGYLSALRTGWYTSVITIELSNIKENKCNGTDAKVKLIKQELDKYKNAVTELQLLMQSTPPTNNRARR

The subject of one assay is RSV A2 VR-1540. The assay can be described thus: Plaque Reduction Assay 2 (HEp-2 cells, virospot count). It is filed as cell-based. As to conditions: human respiratory syncytial virus, 24 h; RSV A2, HEp-2 cells, 1 day. The source says: Plaque Reduction Assay 2:
This RSV plaque reduction assay is an infectivity assay which allows quantification of the number of infectious units in a distinct foci of RSV infection. This is indicated by zones of viral antigen detected by specific antibody staining within a monolayer of otherwise healthy tissue culture cells. As each plaque originates from a single infectious virus particle an accurate calculation of the anti-viral effect can be obtained by counting plaques in the presence and absence of an anti-viral compound. HEp-2 cells (ATCC, CCL23) were passaged in flasks and seeded in 96-well plates in DMEM containing antibiotics and supplemented with 10% FBS. During inoculation and subsequent incubation, cells were cultured in DMEM containing 3% FBS. 100 plaque forming unit (PFU)/well of RSV (RSV A2 VR-1540) was mixed with ten serial dilutions of compound. Subsequently, 100 μL of the virus/compound mixtures was added to confluent HEp-2 cell monolayers. The cells and virus/compound mixtures were incubated at 35° C. in a humidified 5% CO2 incubator for 1 day.
Cells were washed twice with PBS before adding 50% v/v EtOH/MeOH, and then stored at −20° C. On the day of the staining, fixative was first removed from the plates. Plates were washed 3× with PBS. A pre-titrated amount of the primary antibody was added in 60 μL PBS/2% milk powder, and plates incubated for 1 h at rt. The plates were washed 3× with PBS/0.05% Tween20 before addition of goat anti-mouse horse radish peroxidase in 60 μL PBS/2% milk powder, and incubated for 1 h at rt. Following three wash steps with PBS/0.05% Tween20, 60 μL ready-to-use TrueBlue was added and plates were incubated at rt for 10-15 min before adding MilliQ water. Plates were washed once with water, incubated for 30-60 min and after removal of water, air-dried in the dark.
Plates were scanned and analyzed using the Immunospot S6 UV analyzer, which is equipped with BioSpot analysis software for counting immunostained plaques (virospots). Plaque counts were used to calculate % infection relative to the mean of the spot count (SC) in the virus control wells for RSV. IC50/IC90 values were calculated as 50% or 90% reduction in signal, respectively, by interpolation of inhibition curves fitted with a 4-parameter nonlinear regression with a variable slope in GraphPad 5.0 (Prism).
Background: In a plaque reduction assay, fewer plaques than in the control indicate reduced infectivity or spread.
`NC1CCN(c2ncc(CN3C(=O)C4(CC4)c4ccc(F)cc43)c(N3CCS(=O)(=O)CC3)n2)C1` (stereo not drawn) [Compound 13, 1′-((2-(3-Aminopyrrolidin-1-yl)-4-(1,1-dioxidothiomorpholino)pyrimidin-5-yl)methyl)-6′-fluorospiro[cyclopropane-1,3′-indolin]-2′-one] registered an IC50 of 424 nM.

Regarding `NC1CCN(c2ncc(CN3C(=O)C4(CCC4)c4ccc(F)cc43)c(N[C@H]3CC[C@H](O)CC3)n2)C1` (stereo partly drawn) [Compound 20, 1′-{[2-(3-Aminopyrrolidin-1-yl)-4-[(4-hydroxycyclohexyl)amino]pyrimidin-5-yl]methyl}-6′-fluoro-1′,2′-dihydrospiro[cyclobutane-1,3′-indole]-2′-one], the IC50 is 116 nM.

A further assay concerns the target T1, RSV A2_F (Human respiratory syncytial virus A, UniProt P03420).
T1 construct: expressed in transfected cells; host or cells: HEK 293T/17
Put plainly: RSV fusion assay (luciferase reporter, HEK 293T/17 cells transfected with A2_F). It is filed as cell-based. Conditions: Fusion activity IC50 μM, HEK 293T/17 cells, 24 hr. The method, then:
HEK 293T/17 cells were cultured in T75 culture flasks in Dulbecco's medium (DMEM) containing 10% FBS and 1× Penicillin-Streptomycin (Pen/Strep) and warmed to 37° C. prior to use. The cells were passaged by first washing briefly with 3 ml phosphate buffered saline (PBS) followed by a 4 min incubation with […] at 37° C. 7 ml media was then added to the flask and the cells dispersed via pipetting (×3) against the bottom of the flask. Two further T75 flasks were each seeded with 2×10^6 cells in 15 ml fresh media.
Cells were seeded on the T75 plates at the same density as on the 6-well plates the area of a T75 flask and one 1.75 cm radius well from a 6-well plate were compared. 7.79×2 ml of 3×10^5 cells ml^−1 was used to seed a single T75 flask.
HEK cells were removed from a T75 flask as described above. The cells were counted and diluted to 3×10^5 cells/ml in fresh media. Two T75 flasks were each seeded with 15.58 ml diluted cells.
The plasmid DNA (for pFR-Luc and pcDNA3.1_Gal4/NFκB) to be transfected into the HEK cells was first prepared in serum free media (DMEM+Pen/Strep) containing the transfection reagent Fugene 6 (Promega). Transfections were set up as follows (Luc=pFR_Luc, Gal4=pcDNA3.1+_Gal4/NFκB, A2_F=pcDNA3.1+_A2_F)
Serum free media was placed in a 1.5 ml eppendorf tube then the fugene 6 was added into the media. The tube was vortexed for 1 s before being incubated at RT for 5 min. The plasmid DNA was then added to the tube, vortexed for 1 s, then incubated at RT for 15 min
The transfection reagents were then added to the appropriate T75 flask by tipping the flask on end and adding the reagents directly to the media already in the flask. The flask was then tipped on its back so the media could be mixed thoroughly whilst not disturbing the cells before placing the flask the right way up and incubating overnight at 37° C. and 5% CO2.
Compounds were diluted (in a polypropylene round-bottomed 96 well plate) 1:3 in a twelve point dilution curve to give top [final] of either 3.3 μM, 1 μM, 500 nM 200 nM or 100 nM. The Control compound was always run at a concentration of 100 nM.
The cells were then counted and diluted to 4×10^5 cells/ml in fresh media. 50 μl of transfection population 1 cells were added to all wells of the assay plates. 100 μl diluted compound (2 rows per compound), standard curve (one row) and controls (100 nM RV (100% inhibition, four wells), DMSO (0% inhibition, eight wells)) were added to the appropriate wells. 50 μl of the diluted (4×10^5 cells/ml) transfection population 2 cells when then added to all wells.
The plates were then incubated for 24 hr at 37° C. and 5% CO2
Buffers were prepared for the luciferase assay (20 mM tricine, 10 mM MgSO4, 1 mM EDTA, 10 mM DTT) and lysis (25 mM tris-phosphate, 8 mM MgCl2, 1 mM DTT, 1% Triton X-100, 15% glycerol) and stored at −20° C.
Luminescence was measured as described:
Media was discarded into Virkon and the plates washed with 100 ul PBS per well. 20 ul/well of lysis buffer was added to each well and incubated shaking for 5 min at RT. Luciferin was added to LAAB at a dilution of 1:50 to give a working luciferin buffer. 100 μl working luciferin buffer was added to each well and luminescence was measured immediately. […]
(In general: A reporter such as luciferase makes a cellular process visible.)
`NC1CCN(c2ncc(CN3C(=O)C4(CC4)c4ccc(F)cc43)c(N3CCS(=O)(=O)CC3)n2)C1` (stereo not drawn) [Compound 13, 1′-((2-(3-Aminopyrrolidin-1-yl)-4-(1,1-dioxidothiomorpholino)pyrimidin-5-yl)methyl)-6′-fluorospiro[cyclopropane-1,3′-indolin]-2′-one]: the midpoint of inhibition, the IC50, lay at 5.04 µM.

Compound `NC1CCN(c2ncc(CN3C(=O)C4(CC4)c4ccc(F)cc43)c(NCC3CCOCC3)n2)C1` (stereo not drawn) [Compound 23, 1′-{[2-(3-Aminopyrrolidin-1-yl)-4-{[(oxan-4-yl)methyl]amino}pyrimidin-5-yl]methyl}-6′-fluoro-1′,2′-dihydrospiro[cyclopropane-1,3′-indole]-2′-one] came in with an IC50 of 0.451 µM.

The compound `NC1CCN(c2ncc(CN3C(=O)C4(CC4)c4ccc(F)cc43)c(NCCCCCO)n2)C1` (stereo not drawn) [Compound 19, 1′-{[2-(3-Aminopyrrolidin-1-yl)-4-[(5-hydroxypentyl)amino]pyrimidin-5-yl]methyl}-6′-fluoro-1′,2′-dihydrospiro[cyclopropane-1,3′-indole]-2′-one] displayed an IC50 of 0.362 µM.

Compound `NC1CCN(c2ncc(CN3C(=O)C4(CCC4)c4ccc(F)cc43)c(N[C@H]3CC[C@H](O)CC3)n2)C1` (stereo partly drawn) [Compound 20, 1′-{[2-(3-Aminopyrrolidin-1-yl)-4-[(4-hydroxycyclohexyl)amino]pyrimidin-5-yl]methyl}-6′-fluoro-1′,2′-dihydrospiro[cyclobutane-1,3′-indole]-2′-one] displayed an IC50 of 1.95 µM.

`NC1CCN(c2ncc(CN3C(=O)C4(CC4)c4ccc(F)cc43)c(OCCCF)n2)C1` (stereo not drawn) [Compound 22, 1′-{[2-(3-Aminopyrrolidin-1-yl)-4-(3-fluoropropoxy)pyrimidin-5-yl]methyl}-6′-fluoro-1′,2′-dihydrospiro[cyclopropane-1,3′-indole]-2′-one] gave an IC50 of 0.951 µM.

In the case of `CC(=O)N1CCN(c2nc(N3CCC(N)C3)ncc2CN2C(=O)C3(CC3)c3ccc(F)cc32)CC1` (stereo not drawn) [Compound 17, 1′-{[4-(4-Acetylpiperazin-1-yl)-2-(3-aminopyrrolidin-1-yl)pyrimidin-5-yl]methyl}-6′-fluoro-1′,2′-dihydrospiro[cyclopropane-1,3′-indole]-2′-one], 5.46 µM corresponded to half-maximal inhibition (IC50).

In turn, `CC(C)CNc1nc(N2CCOCC2)ncc1CN1C(=O)C2(CC2)c2ccc(F)cc21` [Compound 8, 6′-Fluoro-1′-((4-(isobutylamino)-2-morpholinopyrimidin-5-yl)methyl)spiro[cyclopropane-1,3′-indolin]-2′-one] came in with an IC50 of 8.53 µM.

`NC1CCN(c2ncc(CN3C(=O)C4(CC4)c4ccc(F)cc43)c(NCCCCO)n2)CC1` [Compound 24, 1′-{[2-(4-Aminopiperidin-1-yl)-4-[(4-hydroxybutyl)amino]pyrimidin-5-yl]methyl}-6′-fluoro-1′,2′-dihydrospiro[cyclopropane-1,3′-indole]-2′-one] returned an IC50 of 0.695 µM.

Take `CC(C)CNc1nc(N2CCC(CN)CC2)ncc1CN1C(=O)C2(CC2)c2ccc(F)cc21` [Compound 6]: half-maximal inhibition (IC50) was put at 5.22 µM.

Take `CC(C)CCNc1nc(N2CCCC2)ncc1CN1C(=O)C2(CC2)c2ccc(F)cc21` [Compound 7, 6′-Fluoro-1′-((4-(isopentylamino)-2-(pyrrolidin-1-yl)pyrimidin-5-yl)methyl)spiro[cyclopropane-1,3′-indolin]-2′-one]: the IC50 turned out to be 1.99 µM.

For the compound `NC1CCN(c2ncc(CN3C(=O)C4(CC4)c4ccc(F)cc43)c(N3CCOCC3)n2)C1` (stereo not drawn) [Compound 9, 1′-((2-(3-Aminopyrrolidin-1-yl)-4-morpholinopyrimidin-5-yl)methyl)-6′-fluorospiro[cyclopropane-1,3′-indolin]-2′-one], the IC50 was 3.66 µM.

Consider `CS(=O)(=O)CCNc1nc(N2CCC(N)C2)ncc1CN1C(=O)C2(CC2)c2ccc(F)cc21` (stereo not drawn) [Compound 18, 1′-{[2-(3-Aminopyrrolidin-1-yl)-4-[(2-methanesulfonylethyl)amino]pyrimidin-5-yl]methyl}-6′-fluoro-1′,2′-dihydrospiro[cyclopropane-1,3′-indole]-2′-one], for which inhibition was half-maximal at 0.885 µM (IC50).

Consider `CS(=O)(=O)N1CCN(c2nc(N3CCC(N)C3)ncc2CN2C(=O)C3(CC3)c3ccc(F)cc32)CC1` (stereo not drawn) [Compound 14, 1′-{[2-(3-Aminopyrrolidin-1-yl)-4-(4-methanesulfonylpiperazin-1-yl)pyrimidin-5-yl]methyl}-6′-fluoro-1′,2′ dihydrospiro[cyclopropane-1,3′-indole]-2′-one], for which the IC50 worked out at 1.2 µM.

Take `COCCCNc1nc(N2CCC(N)C2)ncc1CN1C(=O)C2(CC2)c2ccc(F)cc21` (stereo not drawn) [Compound 11, 1′-((2-(3-Aminopyrrolidin-1-yl)-4-((3-methoxypropyl)amino)pyrimidin-5-yl)methyl)-6′-fluorospiro[cyclopropane-1,3′-indolin]-2′-one]: the midpoint of inhibition, the IC50, lay at 0.424 µM.

The compound `NC1CCN(c2ncc(CN3C(=O)C4(CC4)c4ccc(F)cc43)c(NCCN3CCOCC3)n2)C1` (stereo not drawn) [Compound 3, 1′-((2-(3-Aminopyrrolidin-1-yl)-4-((2-morpholinoethyl)amino)pyrimidin-5-yl)methyl)-6′-fluorospiro[cyclopropane-1,3′-indolin]-2′-one] came in with an IC50 of 4.18 µM.

With `NC1CCN(c2ncc(CN3C(=O)C4(CC4)c4ccc(F)cc43)c(SCCCCO)n2)C1` (stereo not drawn) [Compound 16, 1′-{[2-(3-Aminopyrrolidin-1-yl)-4-[(4-hydroxybutyl)sulfanyl]pyrimidin-5-yl]methyl}-6′-fluoro-1′,2′-dihydrospiro[cyclopropane-1,3′-indole]-2′-one], the IC50 turned out to be 2.79 µM.

With `NC1CCN(c2nc(NCCCCO)ncc2CN2C(=O)C3(CC3)c3ccc(F)cc32)C1` (stereo not drawn) [Compound 12, 1′-((4-(3-Aminopyrrolidin-1-yl)-2-((4-hydroxybutyl)amino)pyrimidin-5-yl)methyl)-6′-fluorospiro[cyclopropane-1,3′-indolin]-2′-one], the IC50 worked out at 4.78 µM.

Still in this assay, the particulars now being: Fusion activity PIC50, HEK 293T/17 cells, 24 hr.
As for `NC1CCN(c2ncc(CN3C(=O)C4(CC4)c4ccc(F)cc43)c(C#CCCCO)n2)C1` (stereo not drawn) [Compound 21, 1′-{[2-(3-Aminopyrrolidin-1-yl)-4-(5-hydroxypent-1-yn-1-yl)pyrimidin-5-yl]methyl}-6′-fluoro-1′,2′-dihydrospiro[cyclopropane-1,3′-indole]-2′-one], the IC50 was 25.1 µM.

Compound `NC1CCN(c2ncc(CN3C(=O)C4(CC4)c4ccc(F)cc43)c(SCCCCO)n2)C1` (stereo not drawn) [Compound 16, 1′-{[2-(3-Aminopyrrolidin-1-yl)-4-[(4-hydroxybutyl)sulfanyl]pyrimidin-5-yl]methyl}-6′-fluoro-1′,2′-dihydrospiro[cyclopropane-1,3′-indole]-2′-one] had an IC50 of 2.75 µM.

The term IC50 denotes the concentration that inhibits the measured activity by half. The low end stands for greater potency, the high end for weaker potency.
